From patent US20050107289A1, “Anti-microbial peptides and compositions” (priority 2001, published 2005)
Structures can show the parent of a compound that is named as a salt. Where two headings read alike, the source gives them in different places. Non-standard residues stand in square brackets, D forms with d. Residues, ends and D or L forms follow the SMILES beside them.

How the values were obtained:
[1] = test system: murine red blood cells; experiment: Red blood cell hemolysis; assay type: cell-based, mouse
Protocol: Selectivity of cyclic peptides for bacterial over mammalian cells was evaluated by measuring red blood cell hemolytic activities as described in Tosteson, M. T. Holmes, S. J., Razin, M. and Tosteson, D. C. Melittin Lysis of Red Cells, J. Membrane Biol. 87, 35-44(1985). Heparinized murine blood was centrifuged at 1000×g for 10 minutes. The supernatant and the buffy coat were removed. Erythrocytes were washed three times with 0.9% saline solution and then resuspended to a concentration of 5% in saline containing 10% FBS (v/v). Red blood cells were then treated with serial dilutions of test peptides in a 96 well plate at 37° C. for 30 minutes. Control samples included a saline solution arid 1% Triton X-100 as 0 and 100% hemolysis, respectively. In some cases, mellitin was used as a further control. Mellitin is a linear peptide that is hemolytic against mammalian red blood cells in vitro at a concentration of about 10 μg/ml. Plates were centrifuged at 1000 g for 10 minutes. Aliquots of the supernatant were diluted 2 times with saline solution and the absorbance was measured at 560 nm.

[2] = test system: S. aureus (MRSA) ATCC 33591; assay type: cell-based, Staphylococcus aureus; conditions: for MRSA (in vitro activity): Table 9; for S. aureus (MRSA) MIC: ATCC 33591
Protocol: (§1) The antimicrobial activity of the peptides was determined using a broth dilution assay essentially as descried in the guidelines of the National Committee for […] (NCCLS) [National Committee for Clinical Laboratory Standards. Methods for dilution antimicrobial susceptibility tests for bacteria that grow aerobically. Fourth edition. Approved Standard (1997). Document M7-A4. […] The microdilution method has the advantages of requiring less amount of peptide for each assay and the possibility of multiple simultaneous inoculations and was used in most studies. Several of the strains of bacteria tested are further described in Table 3.
(§2) Preparation of peptide solutions. Stock peptide solutions were prepared in 5% DMSO in aq. sucrose (9%). Determination of peptide concentrations was done by quantitative HPLC analysis using known concentrations of internal standards and/or by measuring UV absorption of tryptophane-containing peptide solutions in H2O (λ=280 εTrp: 5690). Serial 2-fold dilutions were made in the above DMSO/aq. sucrose (9%) mixture with concentrations ranging approximately 400-2 μg/ml and aliquots were dispensed in test tubes (100 μl) for the macrodilution test or in microtiter plates (20 μl) for the microdilution assays.
(§3) Inoculum preparation. Overnight cultures of different microorganisms grown in suitable media were diluted 4000 times to an approximate inoculum size of 2.5×10^5 cfu/ml.
(§4) Macrodilution method. Macrodilution methods were performed using procedures similar to those described in the National Committee for Clinical Laboratory Standards. Methods for dilution antimicrobial susceptibility tests for bacteria that grow aerobically. Fourth edition. Approved Standard (1997). Document M7-A4. (NCCLS,Villanova, Pa., 1997). Two ml aliquots of the above inoculum were dispensed to test tubes containing different peptide solutions.
(§5) Microdilution method. Microdilution methods were performed using procedures similar to those described in the National Committee for Clinical Laboratory Standards. Methods for dilution antimicrobial susceptibility tests for bacteria that grow aerobically. Fourth edition. Approved Standard (1997). Document M7-A4.

[3] = test system: vancomycin-resistant Enterococus faecalis (VRE)(ATCC 51575); assay type: cell-based, Enterococcus faecalis; set-up: key to VRE (in vitro activity): peptide concentration in μg/ml (broth dilution assay); conditions: Table 9
Protocol: as §1, §2, §3, §4, §5

[4] = media b: cation adjusted Meuller Hinton broth (MHBII)
[5] = media c: Brain Heart Infusion (BHI)

| SMILES | RBC Hemolysis (HD50) [1] | MRSA (in vitro activity) [2, 4] | VRE (in vitro activity) [3, 5] | S. aureus (MRSA) MIC [2] [µg/mL] | further results |
| --- | --- | --- | --- | --- | --- |
| CC(C)C[C@H]1NC(=O)[C@H](CCCCN)NC(=O)[C@@H](CO)NC(=O)[C@H](CCCCN)NC(=O)[C@@H](CC(C)C)NC(=O)[C@H](CCCNC(=N)N)NC(=O)[C@@H](CC(C)C)NC(=O)[C@H](CCCNC(=N)N)NC1=O [SEQ ID NO:105, [KSKLRLRL]] (cyclo(K[dL]R[dL]R[dL]K[dS])) | >240 | – | – | – | MRSA (in vitro activity) ([2]; media b: cation adjusted Meuller Hinton broth (MHBII), listed as [KSKLRLRL] (105)): >240; VRE (in vitro activity) ([3]; media c: Brain Heart Infusion (BHI), listed as [KSKLRLRL] (105)): >240 |
| C[C@H]1NC(=O)[C@H](CCCCN)NC(=O)[C@@H](Cc2ccccc2)NC(=O)[C@H](CCC(N)=O)NC(=O)[C@@H](C)NC(=O)[C@H](CCCCN)NC(=O)[C@@H](Cc2ccccc2)NC(=O)[C@H](Cc2c[nH]c3ccccc23)NC1=O [SEQ ID NO:97, [KAQFKAWF]] (cyclo(K[dA]Q[dF]K[dA]W[dF])) | >200 | 100 | 100 | – | – |
| CC(C)C[C@H]1NC(=O)[C@H](Cc2c[nH]c3ccccc23)NC(=O)[C@@H](CCCCN)NC(=O)[C@H](CCCCN)NC(=O)[C@@H](CO)NC(=O)[C@H](CCCCN)NC(=O)[C@@H](CC(C)C)NC(=O)[C@H](Cc2c[nH]c3ccccc23)NC1=O [SEQ ID NO:77, [KSKKWLWL]] (cyclo(K[dS]K[dK]W[dL]W[dL])) | >220 | 13 | 27 | – | – |
| CC(C)C[C@H]1NC(=O)[C@H](C)NC(=O)[C@@H](CC(C)C)NC(=O)[C@H](CCCCN)NC(=O)[C@@H](Cc2c[nH]cn2)NC(=O)[C@H](CCCCN)NC(=O)[C@@H](CC(C)C)NC(=O)[C@H](Cc2c[nH]c3ccccc23)NC1=O [SEQ ID NO:46, [KHKLALWL]] (cyclo(K[dH]K[dL]A[dL]W[dL])) | >200 | 25 | 50 | – | – |
| CC(C)C[C@H]1NC(=O)[C@H](CCCCN)NC(=O)[C@@H](CO)NC(=O)[C@H](CCCCN)NC(=O)[C@@H](CC(C)C)NC(=O)[C@H](Cc2ccccc2)NC(=O)[C@@H](CC(C)C)NC(=O)[C@H](Cc2ccccc2)NC1=O [SEQ ID NO:55, [KSKLFLFL]] (cyclo(F[dL]F[dL]K[dS]K[dL])) | – | – | – | – | MRSA (in vitro activity) ([2]; media b: cation adjusted Meuller Hinton broth (MHBII), listed as [KSKLFLFL] (55)): 200; VRE (in vitro activity) ([3]; media b: MHBII): 50 |
| CC(C)C[C@H]1NC(=O)[C@H](C)NC(=O)[C@@H](CC(C)C)NC(=O)[C@H](CCCCN)NC(=O)[C@@H]([C@H](C)O)NC(=O)[C@H](CCCCN)NC(=O)[C@@H](CC(C)C)NC(=O)[C@H](C)NC1=O [SEQ ID NO:64, [KTKLALAL]] (cyclo(K[dT]K[dL]A[dL]A[dL])) | >160 | 80 | >160 | – | – |
| CC(C)C[C@@H]1NC(=O)[C@@H](Cc2c[nH]c3ccccc23)NC(=O)[C@H](CCCCN)NC(=O)[C@@H](CO)NC(=O)[C@H](CCCCN)NC(=O)[C@@H](CO)NC(=O)[C@H](CCCCN)NC(=O)[C@@H](Cc2c[nH]c3ccccc23)NC1=O [SEQ ID NO:91, [KSKSKWLW]] (cyclo(K[dS]K[dS]K[dW]L[dW])) | 200 | 6 | 12 | – | – |
| NCCCC[C@@H]1NC(=O)[C@@H](Cc2ccccc2)NC(=O)[C@H](CCC(N)=O)NC(=O)[C@@H](Cc2ccccc2)NC(=O)[C@H](CCCCN)NC(=O)[C@@H](CC(N)=O)NC(=O)[C@H](Cc2c[nH]c3ccccc23)NC(=O)[C@@H](CC(N)=O)NC1=O [SEQ ID NO:98, [KFQFKNWN]] (cyclo(K[dF]Q[dF]K[dN]W[dN])) | >280 | >200 | >200 | – | – |
| CC(C)C[C@H]1NC(=O)[C@H](Cc2c[nH]c3ccccc23)NC(=O)[C@@H](Cc2c[nH]cn2)NC(=O)[C@H](Cc2c[nH]cn2)NC(=O)[C@@H](CO)NC(=O)[C@H](Cc2c[nH]c3ccccc23)NC(=O)[C@@H](CC(C)C)NC(=O)[C@H](Cc2c[nH]c3ccccc23)NC1=O [[SHHWLWLW-HCl] (15), SHHWLWLW] (cyclo([dS]H[dH]W[dL]W[dL]W)) | 40 | 6 | 6 | – | – |
| CC(C)C[C@@H](NC(=O)[C@H](Cc1c[nH]c2ccccc12)NC(=O)[C@@H](CC(C)C)NC(=O)[C@H](Cc1c[nH]c2ccccc12)NC(=O)[C@@H](CCCCN)NC(=O)[C@H](CCCCN)NC(=O)[C@@H](CCCCN)NC(=O)[C@@H](N)Cc1c[nH]c2ccccc12)C(=O)N[C@@H](Cc1c[nH]c2ccccc12)C(=O)O [SEQ ID NO:23, WKKKWLWLW] (H-W[dK]K[dK]W[dL]W[dL]W-OH; N-terminus and C-terminus assumed) | – | – | – | 60 | – |
| CC(C)C[C@@H]1NC(=O)[C@@H](Cc2c[nH]c3ccccc23)NC(=O)[C@H](Cc2c[nH]c3ccccc23)NC(=O)[C@@H](CCCNC(=N)N)NC(=O)[C@H](CCC(N)=O)NC(=O)[C@@H](CCCNC(=N)N)NC(=O)[C@H](Cc2c[nH]c3ccccc23)NC(=O)[C@@H](Cc2c[nH]c3ccccc23)NC1=O [SEQ ID NO:36, QRWWLWWR] (cyclo(Q[dR]W[dW]L[dW]W[dR])) | – | – | – | 2.5 to 3.8 | – |
| CC[C@H](C)[C@@H]1NC(=O)[C@@H](CC(C)C)NC(=O)[C@H](CCCCN)NC(=O)[C@@H](CO)NC(=O)[C@H](CCCCN)NC(=O)[C@@H](CC(C)C)NC(=O)[C@H]([C@@H](C)CC)NC(=O)[C@@H](CC(C)C)NC1=O [SEQ ID NO:58, [KSKLILIL]] (cyclo(I[dL]I[dL]K[dS]K[dL])) | – | – | – | – | MRSA (in vitro activity) ([2]; media b: cation adjusted Meuller Hinton broth (MHBII), listed as [KSKLILIL] (58)): >200; VRE (in vitro activity) ([3]; media b: MHBII): 50 |
| CC(C)C[C@@H]1NC(=O)[C@@H](Cc2c[nH]c3ccccc23)NC(=O)[C@H](Cc2ccccc2)NC(=O)[C@@H](CCCNC(=N)N)NC(=O)[C@H](CCC(N)=O)NC(=O)[C@@H](CCCNC(=N)N)NC(=O)[C@H](Cc2c[nH]c3ccccc23)NC(=O)[C@@H](Cc2c[nH]c3ccccc23)NC1=O [SEQ ID NO:39, QRFWLWWR] (cyclo(Q[dR]F[dW]L[dW]W[dR])) | – | – | – | 2.5 to 3.8 | – |
| CC(C)C[C@@H]1NC(=O)[C@@H](Cc2c[nH]c3ccccc23)NC(=O)[C@H](C(C)C)NC(=O)[C@@H](CCCNC(=N)N)NC(=O)[C@H](CCC(N)=O)NC(=O)[C@@H](CCCNC(=N)N)NC(=O)[C@H](Cc2c[nH]c3ccccc23)NC(=O)[C@@H](Cc2c[nH]c3ccccc23)NC1=O [SEQ ID NO:38, QRVWLWWR] (cyclo(Q[dR]V[dW]L[dW]W[dR])) | – | – | – | 2.5 to 3.8 | – |
| CC(C)C[C@@H](NC(=O)[C@H](Cc1c[nH]c2ccccc12)NC(=O)[C@@H](CC(C)C)NC(=O)[C@H](Cc1c[nH]c2ccccc12)NC(=O)[C@@H](CCCCN)NC(=O)[C@H](CCCCN)NC(=O)[C@H](N)CCCCN)C(=O)N[C@@H](Cc1c[nH]c2ccccc12)C(=O)O [SEQ ID NO:24, KKKWLWLW] (H-[dK]K[dK]W[dL]W[dL]W-OH; N-terminus and C-terminus assumed) | – | – | – | 50 | – |
| C[C@H](O)[C@H]1NC(=O)[C@H](CCCNC(=N)N)NC(=O)[C@@H](CO)NC(=O)[C@H](CCC(N)=O)NC(=O)[C@@H](Cc2c[nH]cn2)NC(=O)[C@H](CCCCN)NC1=O [SEQ ID NO:131, [KHQSRT]] (cyclo(K[dH]Q[dS]R[dT])) | – | – | – | – | MRSA (in vitro activity) ([2]; media a: anti-microbial media-3 (AM-3)): >200; VRE (in vitro activity) ([3]; media a: AM-3): >200 |
